Like-named read-outs stand apart in the source and are kept apart here.
Target: T1, NS3-NS4A protease (Hepatitis C virus genotype 1a, UniProt P27958)
T1 construct: Recombinant E. coli or Baculovirus full-length NS3 was diluted to 3.33 μM with assay buffer; made in house; host or cells: E. coli or baculovirus (BV) system
Assay: NS3-NS4A protease assay (NS3 inhibition assay, RETS1 substrate), Section B
Format: biochemical
Procedure: NS3 complex formation with NS4A-2
Recombinant E. coli or Baculovirus full-length NS3 was diluted to 3.33 μM with assay buffer and the material transferred to an eppendorf tube and place in water bath in 4° C. refrigerator. The appropriate amount of NS4A-2 to 8.3 mM in assay buffer was added to equal the volume of NS3 in step 2.1.1 (conversion factor −3.8 mg/272 μL assay buffer). The material was transferred to an eppendorf tube and placed in a water bath in a 4° C. refrigerator.
After equilibration to 4° C., equal volumes of NS3 and NS4A-2 solutions were combined in an eppendorf tube, mixed gently with a manual pipettor, and the mixture incubated for 15 minutes in the 4° C. water bath. Final concentrations in the mixture were 1.67 μM NS3, 4.15 mM NS4A-2 (2485-fold molar excess NS4A-2).
After 15 minutes at 4° C., the NS3/NS4A-2 eppendorf tube was removed and placed in a room temperature water bath for 10 minutes. NS3/NS4A-2 was aliquoted at appropriate volumes and store at −80° C. (E. coli NS3 run at 2 nM in assay, aliquot at 25 μL. BV NS3 run at 3 nM in assay, aliquot at 30 μL.
Step 2.2.5. Sample compounds were dissolved to 10 mM in DMSO then diluted to 2.5 mM (1:4) in DMSO.
Step 2.2.6. The E. coli NS3/NS4A-2 was diluted to 4 nM NS3 (1:417.5 of 1.67 μM stock−18 μL 1.67 μM stock+7497 μL assay buffer).
The BV NS3/NS4A-2 was diluted to 6 nM NS3 (1:278.3 of 1.67 μM stock−24 μL 1.67 μM stock+6655 μL assay buffer).
Step 2.2.7. Using the manual multichannel pipettor, and being careful not to introduce bubbles into the plate, 50 μL assay buffer was added to wells A01-H01 of a black Costar 96-well polypropylene storage plate.
Step 2.2.8. Using the manual multichannel pipettor, and being careful not to introduce bubbles into the plate, 50 μL of diluted NS3/NS4A-2 from step 2.2.6 was added to wells A02-H12 of plate in step 2.2.7.
Step 2.2.9. Using the manual multichannel pipettor, and being careful not to introduce bubbles into the plate, 25 μL of the wells in drug dilution plate in step 2.2.5 were transferred to corresponding wells in assay plate in step 2.2.8. The tips on multichannel pipettor were changed for each row of compounds transferred.
Step 2.2.10. Using the manual multichannel pipettor, and being careful not to introduce bubbles into the plate, the wells from the assay plate in step 2.2.9 were mixed by aspirating and dispensing 35 μL of the 75 μL in each well five times. The tips on multichannel pipettor were changed for each row of wells mixed.
Step 2.2.11. The plate was covered with a polystyrene plate lid, and the plate from step 2.2.10 containing NS3 protease and sample compounds was pre-incubated 10 minutes at room temperature.
While the plate from step 2.2.11 was pre-incubating, the RETS1 substrate was diluted in a 15 mL polypropylene centrifuge tube. The RETS1 substrate was diluted to 8 μM (1:80.75 of 646 μM stock−65 μL 646 μM stock+5184 μL assay buffer).
After the plate in step 2.2.11 was done pre-incubating, and using the manual multichannel, 25 μL of substrate was added to all wells on the plate. The contents of the wells were quickly mixed, as in step 2.2.10, but mixing 65 μL of the 100 μL in the wells.
The plate was read in kinetic mode on the Molecular Devices SpectraMax Gemini XS plate reader. Reader settings: Read time: 30 minutes, Interval: 36 seconds, Reads: 51, Excitation λ: 335 nm, Emission λ: 495 nm, cutoff: 475 nm, Automix: off, Calibrate: once, PMT: high, Reads/well: 6, Vmax pts: 21 or 28/51 depending on length of linearity of reaction.
IC50s were determined using a four parameter curve fit equation, and converted to Ki's using the following Km's:
where Ki=IC50/(1+[S]/Km))

T1 sequence (P27958 1027-1657): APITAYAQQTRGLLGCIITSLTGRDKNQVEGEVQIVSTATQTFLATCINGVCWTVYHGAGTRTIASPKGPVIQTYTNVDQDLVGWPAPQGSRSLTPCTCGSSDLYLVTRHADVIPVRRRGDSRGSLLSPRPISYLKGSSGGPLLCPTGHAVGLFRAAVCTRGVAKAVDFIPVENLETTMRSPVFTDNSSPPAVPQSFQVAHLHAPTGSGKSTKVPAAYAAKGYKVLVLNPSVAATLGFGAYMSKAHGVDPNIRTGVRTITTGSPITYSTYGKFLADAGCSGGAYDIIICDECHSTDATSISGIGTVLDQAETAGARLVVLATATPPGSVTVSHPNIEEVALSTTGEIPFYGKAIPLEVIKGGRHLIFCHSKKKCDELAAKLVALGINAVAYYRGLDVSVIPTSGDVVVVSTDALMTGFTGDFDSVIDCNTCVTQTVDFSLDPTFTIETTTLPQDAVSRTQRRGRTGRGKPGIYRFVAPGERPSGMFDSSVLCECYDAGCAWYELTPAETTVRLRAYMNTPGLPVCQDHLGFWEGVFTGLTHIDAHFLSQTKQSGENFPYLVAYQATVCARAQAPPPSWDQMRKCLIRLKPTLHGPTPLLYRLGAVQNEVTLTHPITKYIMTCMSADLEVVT

| Compound | IC50 (read-out: NS3-NS4A IC50) | IC50 |
| --- | --- | --- |
| CC(C)(C)OC(=O)N[C@H]1CCCCC/C=C\[C@@H]2C[C@@]2(C(=O)O)NC(=O)[C@@H]2C[C@@H](OC(=O)N3CCc4ccc(Cl)cc4C3)CN2C1=O [AR00304062, (1S,4R,6S,14S,18R)-14-tert-Butoxycarbonylamino-18-(7-chloro-3,4-dihydro-1H-isoquinoline-2-carbonyloxy)-2,15-dioxo-3,16-diaza-tricyclo[14.3.0.0^4,6]nonadec-7-ene-4-carboxylic acid] | < 10 µM |  |
| CC(C)(C)OC(=O)N[C@H]1CCCCC/C=C\[C@@H]2C[C@@]2(C(=O)O)NC(=O)[C@@H]2C[C@@H](OC(=O)N3CCc4cc(N)ccc4C3)CN2C1=O [AR00314578, (1S,4R,6S,14S,18R)-18-(6-Amino-3,4-dihydro-1H-isoquinoline-2-carbonyloxy)-14-tert-butoxycarbonylamino-2,15-dioxo-3,16-diaza-tricyclo[14.3.0.0^4,6]nonadec-7-ene-4-carboxylic acid] | < 1 µM |  |
| COc1ccc(S(=O)(=O)NC(=O)[C@@]23C[C@H]2/C=C\CCCCC[C@H](NC(=O)OC(C)(C)C)C(=O)N2C[C@H](OC(=O)N4Cc5ccccc5C4)C[C@H]2C(=O)N3)cc1C(=O)O [AR00365425, (1S,4R,6S,14S,18R)-1,3-Dihydro-isoindole-2-carboxylic acid 14-tert-butoxycarbonylamino-4-(3-carboxy-4-methoxy-benzenesulfonylaminocarbonyl)-2,15-dioxo-3,16-diaza-tricyclo[14.3.0.0^4,6]nonadec-7-en-18-yl ester] | < 0.1 µM |  |
| CC(C)(C)OC(=O)N[C@H]1CCCCC/C=C\[C@@H]2C[C@@]2(C(=O)O)NC(=O)[C@@H]2C[C@@H](OC(=O)N3CCc4ccccc4C3CN3CCCCC3)CN2C1=O (stereo partly drawn) [AR00301383, (1S,4R,6S,14S,18R)-14-tert-Butoxycarbonylamino-2,15-dioxo-18-(1-piperidin-1-ylmethyl-3,4-dihydro-1H-isoquinoline-2-carbonyloxy)-3,16-diaza-tricyclo[14.3.0.0^4,6]nonadec-7-ene-4-carboxylic acid] | < 10 µM |  |
| O=C(N[C@H]1CCCCC/C=C\[C@@H]2C[C@@]2(C(=O)O)NC(=O)[C@@H]2C[C@@H](OC(=O)N3Cc4cc(Cl)c(Cl)cc4C3)CN2C1=O)O[C@@H]1CCOC1 [AR00320445, (1S,4R,6S,14S,18R)-18-(5,6-Dichloro-1,3-dihydro-isoindole-2-carbonyloxy)-2,15-dioxo-14-(tetrahydro-furan-3R-yloxycarbonylamino)-3,16-diaza-tricyclo[14.3.0.0^4,6]nonadec-7-ene-4-carboxylic acid] | < 10 µM |  |
| CC(C)(C)OC(=O)N[C@H]1CCCCC/C=C\[C@@H]2C[C@@]2(C(=O)O)NC(=O)[C@@H]2C[C@@H](OC(=O)N3CCc4ncncc4C3)CN2C1=O [AR00304183, (1S,4R,6S,14S,18R)-14-tert-Butoxycarbonylamino-18-(7,8-dihydro-5H-pyrido[4,3-d]pyrimidine-6-carbonyloxy)-2,15-dioxo-3,16-diaza-tricyclo[14.3.0.0^4,6]nonadec-7-ene-4-carboxylic acid] | < 50 µM |  |
| CC(C)(C)OC(=O)N[C@H]1CCCCC/C=C\[C@@H]2C[C@@]2(C(=O)O)NC(=O)[C@@H]2C[C@@H](NC(=O)N3CCCc4ccccc43)CN2C1=O [AR00304160, (1S,4R,6S,14S,18R)-14-tert-Butoxycarbonylamino-18-[(3,4-dihydro-2H-quinoline-1-carbonyl)-amino]-2,15-dioxo-3,16-diaza-tricyclo[14.3.0.0^4,6]nonadec-7-ene-4-carboxylic acid] | < 50 µM |  |
| COc1ccc2c(c1)CCN(C(=O)O[C@@H]1C[C@H]3C(=O)N[C@]4(C(=O)O)C[C@H]4/C=C\CCCCC[C@H](NC(=O)OC(C)(C)C)C(=O)N3C1)C2CN(C)C (stereo partly drawn) [AR00333277, (1S,4R,6S,14S,18R)-14-tert-Butoxycarbonylamino-18-(1-dimethylaminomethyl-6-methoxy-3,4-dihydro-1H-isoquinoline-2-carbonyloxy)-2,15-dioxo-3,16-diaza-tricyclo[14.3.0.0^4,6]nonadec-7-ene-4-carboxylic acid] | < 10 µM |  |
| CC(C)[C@@H](N)C(=O)N[C@H]1CCCCC/C=C\[C@@H]2C[C@@]2(C(=O)O)NC(=O)[C@@H]2C[C@@H](OC(=O)N3CCc4ccccc4C3)CN2C1=O [AR00298990, (1S,4R,6S,14S,18R)-14-(2-Amino-3-methyl-butyrylamino)-18-(3,4-dihydro-1H-isoquinoline-2-carbonyloxy)-2,15-dioxo-3,16-diaza-tricyclo[14.3.0.0^4,6]nonadec-7-ene-4-carboxylic acid] |  | < 10 µM |
| CC(C)(C)OC(=O)N[C@H]1CCCCC/C=C\[C@@H]2C[C@@]2(C(=O)O)NC(=O)[C@@H]2C[C@@H](OC(=O)N3CCc4cccc(C(F)(F)F)c4C3)CN2C1=O [AR00294382, (1S,4R,6S,14S,18R)-14-tert-Butoxycarbonylamino-2,15-dioxo-18-(8-trifluoromethyl-3,4-dihydro-1H-isoquinoline-2-carbonyloxy)-3,16-diaza-tricyclo[14.3.0.0^4,6]nonadec-7-ene-4-carboxylic acid] | < 1 µM |  |
| CC(C)(C)OC(=O)N[C@H]1CCCCC/C=C\[C@@H]2C[C@@]2(C(=O)O)NC(=O)[C@@H]2C[C@@H](OC(=O)N3CCc4nc(N)sc4C3)CN2C1=O [AR00304154, (1S,4R,6S,14S,18R)-18-(2-Amino-6,7-dihydro-4H-thiazolo[5,4-c]pyridine-5-carbonyloxy)-14-tert-butoxycarbonylamino-2,15-dioxo-3,16-diaza-tricyclo[14.3.0.0^4,6]nonadec-7-ene-4-carboxylic acid] | < 10 µM |  |
| CN(C)CC1c2ccccc2CCN1C(=O)O[C@@H]1C[C@H]2C(=O)N[C@]3(C(=O)O)C[C@H]3/C=C\CCCCC[C@H](NC(=O)OC(C)(C)C)C(=O)N2C1 (stereo partly drawn) [AR00333224, (1S,4R,6S,14S,18R)-14-tert-Butoxycarbonylamino-18-(1-dimethylaminomethyl-3,4-dihydro-1H-isoquinoline-2-carbonyloxy)-2,15-dioxo-3,16-diaza-tricyclo[14.3.0.0^4,6]nonadec-7-ene-4-carboxylic acid] | < 10 µM |  |

Reference: patent US7491794B2, “Macrocyclic compounds as inhibitors of viral replication” (Intermune, Inc., priority 2003, dated 2009)
